Measured values taken from PMC9867837 (Cancer letters, 2022).
Where two headings read alike, the source gives them in different places.

Experiments:
[1] = biological target: Stat3 (Homo sapiens, UniProt P40763); test: EMSA of constitutive Stat3 DNA-binding activity in nuclear extracts of treated breast cancer cells; type: cell-based; parameters: endogenous in cells; settings: MDA-MB-468 and MDA-MB-231, 0–5 μM, 1 or 2 h
Method: These studies were carried out as previously described using the ^32P-labeled oligonucleotide probes, hSIE (high affinity sis-inducible element from the c-fos gene, m67 variant, 5^′-[…]) that binds Stat1 and Stat3 [11, 12] and the mammary gland factor element (MGFe) from the bovine β–casein gene promoter (sense strand, 5^′-[…]) that binds Stat5 and Stat1 [11, 12]. Details are presented in Supplementary Information, “Methods”.
Nuclear extracts and whole-cell lysates were prepared, and samples of equal total protein were subjected to Stat3 DNA-binding assay/EMSA analysis using the hSIE probe, or to SDS/PAGE and Western blotting analysis for pY705Stat3, Stat3, or GAPDH [11, 12]. […] Depending on the concentration (1, 3, or 5 μM), the inhibitory effects of the azetidine compounds were observed relatively early, at 30–60 min, on both Stat3 DNA-binding activity (Fig. 4C) and Tyr phosphorylation (Fig. 4D, pY705Stat3).

[2] = biological target: T1, Stat1:Stat1 DNA-binding activity (Mus musculus, UniProt P42225); test: EMSA of Stat1:Stat1 DNA-binding activity in nuclear extracts of EGF-stimulated NIH3T3/hEGFR; type: biochemical; settings: Fig. 1C, 30 min
T1 construct: endogenous in cells; host or cells: EGF-stimulated NIH3T3/hEGFR fibroblasts (nuclear extract)
T1 sequence (P42225 2-749 limits assumed): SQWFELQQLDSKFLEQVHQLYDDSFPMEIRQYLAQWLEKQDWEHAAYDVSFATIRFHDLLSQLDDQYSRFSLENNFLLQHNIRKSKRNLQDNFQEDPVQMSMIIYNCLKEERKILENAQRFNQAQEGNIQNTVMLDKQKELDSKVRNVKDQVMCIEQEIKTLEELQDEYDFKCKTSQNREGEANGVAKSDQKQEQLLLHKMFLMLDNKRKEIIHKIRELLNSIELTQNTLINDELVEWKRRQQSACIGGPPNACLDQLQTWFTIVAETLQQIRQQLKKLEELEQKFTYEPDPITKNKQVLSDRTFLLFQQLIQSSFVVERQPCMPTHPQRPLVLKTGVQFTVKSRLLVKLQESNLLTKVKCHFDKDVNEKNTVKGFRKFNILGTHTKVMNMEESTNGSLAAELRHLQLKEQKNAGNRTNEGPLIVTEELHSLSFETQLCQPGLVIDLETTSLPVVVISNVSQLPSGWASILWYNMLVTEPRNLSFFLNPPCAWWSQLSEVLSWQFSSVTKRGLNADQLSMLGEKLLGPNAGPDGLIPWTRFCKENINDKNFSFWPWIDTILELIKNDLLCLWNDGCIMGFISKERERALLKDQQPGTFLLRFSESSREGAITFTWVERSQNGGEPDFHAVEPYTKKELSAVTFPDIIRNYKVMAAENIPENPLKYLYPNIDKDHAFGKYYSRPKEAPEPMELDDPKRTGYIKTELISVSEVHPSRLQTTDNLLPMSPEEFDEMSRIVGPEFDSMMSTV
Method: These studies were carried out as previously described using the ^32P-labeled oligonucleotide probes, hSIE (high affinity sis-inducible element from the c-fos gene, m67 variant, 5^′-[…]) that binds Stat1 and Stat3 [11, 12] and the mammary gland factor element (MGFe) from the bovine β–casein gene promoter (sense strand, 5^′-[…]) that binds Stat5 and Stat1 [11, 12]. Details are presented in Supplementary Information, “Methods”. […]
min, prior to incubation with the radiolabeled probe for 30 min at 30 °C and subjecting to EMSA analysis.
In another case, the nuclear extract was pre-incubated with the radiolabeled probe for 30 min at 30 °C prior to incubation with increasing concentration of H182 at room temperature for 30 min and subjecting to EMSA analysis. Bands corresponding to Stats DNA- binding activities were scanned and quantified using ImageJ and plotted as a percentage of control (vehicle) against the concentration of the inhibitor, from which the IC50 values were derived .

[3] = system: MCF-10A cells; test: CyQuant viable cell number assay, MCF-10A; type: cell-based, human; settings: 72 h, read-out: IC50 viable cell numbers, MCF-10A
Method: CyQuant assay was performed to evaluate compounds as previously reported. Details are presented in Supplementary Information, “Methods”. […]
1.2.6. Cell viability assays
CyQuant assay was performed to evaluate compounds as previously reported [1 -3] . Briefly, cells (5 x 10^3 per well, 100 µl) in culture in 96-well plates were treated once with 0 -10 µM concentrations of H120, H105, […]
concentration of H182 for 6 h and then treated with 0- 100 nM docetaxel or 0-20 µM cisplatin for a total of 72 h. Viable cell numbers were assessed by a CyQuant cell proliferation kit according to the manufacturer’s instructions (Thermo/Life Technologies Corp, Carlsbad, CA). Viable cell numbers were normalized to that of DMSO (control)-treated samples. […]

[4] = first Stat1:Stat1 value listed (hSIE probe)
[5] = second Stat1:Stat1 value listed (MGFe probe)

Stat3, sequence (P40763 whole entry): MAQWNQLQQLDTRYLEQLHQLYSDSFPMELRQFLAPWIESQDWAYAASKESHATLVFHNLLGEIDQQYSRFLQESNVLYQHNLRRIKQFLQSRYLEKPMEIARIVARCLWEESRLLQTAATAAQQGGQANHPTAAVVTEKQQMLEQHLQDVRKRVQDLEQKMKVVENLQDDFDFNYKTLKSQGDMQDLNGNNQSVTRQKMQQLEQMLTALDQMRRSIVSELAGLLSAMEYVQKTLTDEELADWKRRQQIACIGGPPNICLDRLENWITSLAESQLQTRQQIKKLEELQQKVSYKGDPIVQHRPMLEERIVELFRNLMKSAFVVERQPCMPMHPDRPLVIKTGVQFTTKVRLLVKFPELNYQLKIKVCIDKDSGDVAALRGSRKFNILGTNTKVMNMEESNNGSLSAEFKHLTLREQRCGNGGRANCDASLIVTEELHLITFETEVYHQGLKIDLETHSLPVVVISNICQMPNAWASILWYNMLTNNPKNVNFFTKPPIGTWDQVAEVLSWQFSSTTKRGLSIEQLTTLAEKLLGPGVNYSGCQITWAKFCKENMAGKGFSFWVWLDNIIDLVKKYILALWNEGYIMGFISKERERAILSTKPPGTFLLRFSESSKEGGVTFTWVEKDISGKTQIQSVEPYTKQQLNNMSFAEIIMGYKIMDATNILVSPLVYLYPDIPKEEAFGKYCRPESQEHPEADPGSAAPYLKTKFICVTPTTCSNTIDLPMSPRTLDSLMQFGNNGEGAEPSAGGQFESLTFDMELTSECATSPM

Row | Compound | Effect on constitutive Stat3 DNA-binding activity in cells [1] | IC50 [2, 4] | IC50 [2, 5] | IC50 [3] | IC50 ([3]; Homo sapiens, MCF-10A)
1 | O=C([C@H]1CCN1S(=O)(=O)c1c(F)c(F)c(F)c(F)c1F)N(Cc1ccc(C2CCCCC2)cn1)c1ccc2c(=O)[nH]cnc2c1 [Compound H172] | dose-dependent inhibition | > 20 µM | > 20 µM | 4 µM | 3.8 to 4 µM
2 | O=C([C@H]1CCN1S(=O)(=O)c1c(F)c(F)c(F)c(F)c1F)N(Cc1ccc(C2CCCCC2)cn1)c1ccc2c(=O)[nH]ncc2c1 [Compound H182] | dose-dependent inhibition | 16.8 µM | 17.8 µM | 3.8 µM | 3.8 to 4 µM
